# According to patent US20080064665A1, “Combination approaches to cancer treatment” (priority 2006, published 2008):
# “And” between values parts separate entries of the source, which are not always exact repeats. Equal entries are not always repeated.
# Tests used:
# [1] = system: SiHa human cervical cancer xenograft; test: Growth delay and survival of SiHa xenograft, PR-104 and docetaxel; type: in vivo, Rag-1^null mice
# Text: Analysis: End-points will be expressed as TTE50, Median RTV^4 and plotted in Kaplan-Meier Plots and analysed by Log Rank P statistical test. Weight loss nadir will be compared between schedules.
# [2] = system: 22RV1 androgen-resistant human prostate cancer xenograft; test: Growth delay and survival of 22RV1 xenograft, PR-104 and docetaxel; type: in vivo, CD-1 nude mice
# Experimental: (§1) End-point: After treatment, tumor size and body weights were measured regularly and mice were culled either when the average diameter of the tumor reached 15 mm (end-point), the tumor ulcerated or when the body weight change reached −15%. Experiment was ended and all remaining mice culled 120 days after treatment.
# (§2) Analysis: End-points will be expressed as TTE50, Median RTV^4 and plotted in Kaplan-Meier Plots and analysed by Log Rank P statistical test.
# [3] = system: SiHa cervical cancer xenografts; test: Excision assay of SiHa xenografts (clonogenic log cell kill); type: in vivo, CD-1 Fox^nu mice; conditions: SN 28343 91.2 mg/kg, SN 29303 375 mg/kg
# Experimental: As for Part 1 except for except where noted below.
# Excess compound was discarded.
# Date, body weights (used to adjust injection volume), tumor diameter, unique identifier (tail markings), body weight, and volume to be injected were recorded. Animals were dosed with the test articles i.p. following a defined treatment schedule:
# 18 hours after treatment the mice were culled by cervical dislocation and tumors removed by dissection, in a sterile laminar flow hood. Whole tumor weights were recorded. Tumors were minced using scissors or scalpels until a fine minceate was obtained, and up to 500 mg of minceate was transferred into a pre-tiered Falcon®14 ml test tube containing a sterile magnetic spin bar and re-weighed.
# Samples were then incubated in 37° C. water bath for 30 min over a magnetic stirrer.
# After incubation any undissociated material was allowed to settle for 1 minute. […] Pellets were re-suspended in 10 ml of medium. Cells/ml was determined using an electronic particle counter (Beckman Coulter Electronics, Z2 model). Samples were then diluted to 1×10^5cells/ml and 6-fold serial dilutions made down to 4.6×10^2cells/ml.
# 1 ml of each sample was plated in triplicate for each dilution into appropriately labelled Falcon® P-60 tissue culture dishes containing 4 ml of αMEM+10% FCS+PS.
# Where possible, all plates were counted; those colonies counted=larger than 50 cells, confirmed with the light microscope. TMTC was recorded for those plates where there were too many colonies to count.
# The criteria for selecting the best dilution to use for calculating plating efficiency (PE):
# Higher dilution count>100 colonies (average); lower dilution 10-100 colonies, use PE from the dilution with fewer colonies.
# Higher dilution count >100; lower dilution count <20, use average data from both.
# Higher dilution count <100; lower dilution count <20, use PE from the dilution with more colonies.
# Higher dilution count <100; lower dilution count >20, use average data from both. Note: For the 10^5 dilution, take as the “lower limit” colony count a total count of 30, (sum of all replicates).
# [4] = system: A2780 human ovarian cancer xenografts; test: Growth delay and survival of A2780 xenografts, PR-104 and docetaxel; type: in vivo, CD-1 nude mice; conditions: A2780 xenograft
# Experimental: as §1, §2
# [5] = Rag-1 mice, PR-104 652 mg/kg, docetaxel 73 mg/kg, q2w×2
# [6] = 22RV1 xenograft, PR-104 652 mg/kg, docetaxel 73 mg/kg, q2w×2
# [7] = PR-104 652 mg/kg, docetaxel 73 mg/kg, q2w×2
structure (smiles),measurement,setting,value
"CC(=O)O[C@@]12CO[C@@H]1C[C@H](O)[C@@]1(C)C(=O)[C@H](O)C3=C(C)[C@@H](OC(=O)[C@H](O)[C@@H](NC(=O)OC(C)(C)C)c4ccccc4)C[C@@](O)([C@@H](OC(=O)c4ccccc4)[C@H]21)C3(C)C [Docetaxel, (2R,3S)-N-carboxy-3-phenylisoserine, N-tert-butyl ester, 13-ester with 5β-20-epoxy-1,2α,4,7β,10β,13α-hexahydroxytax-11-en-9-one 4-acetate 2-benzoate, trihydrate, reference compound]",activity against SiHa xenograft (in words),[1]; Rag-1 mice,displayed activity
same,LTC (long term control),"[1]; Rag-1 mice, 120 day experiment",0
same,Weight Loss Nadir (%),"[1]; Rag-1 mice, PR-104 652 mg/kg, docetaxel 73 mg/kg, i.p., q2w×2, trihydrate",−7.0±0.8%
same,Median RTV^4,[1]; [5],44.5 days
same,TTE50 (median time for tumor end-point to occur),[1]; [5],54 days
same,TGD (relative gain in median RTV^4 versus control),"[1]; Rag-1 mice, PR-104 652 mg/kg, docetaxel 73 mg/kg, q2w×2, trihydrate",271% and 270.8%
same,Day of death,"[1]; Rag-1 mice, day of unscheduled death, trihydrate",44 and 66
same,improvement in tumor growth delay,"[1]; Rag-1 mice, versus control",32.5 days
same,Gain TTE50 (improvement in median survival),"[1]; Rag-1 mice, versus control (17 days)",37 days
same,Unscheduled deaths,"[1]; female Rag-1 mice, total dose PR-104 652 mg/kg, docetaxel 73 mg/kg, i.p., q2w×2",2
same,activity against 22RV1 xenograft (in words),[2]; 22RV1 prostate xenograft model,moderately active
same,Weight Loss Nadir (%),"[2]; 22RV1 xenograft, CD-1 nude mice, PR-104 652 mg/kg, docetaxel 73 mg/kg, i.p., q2w×2, trihydrate",−3.5±0.8%
same,LTC (long term control),"[2]; 22RV1 xenograft, 120 day experiment",0
same,Median RTV^4,[2]; [6],20 days
same,TGD (relative gain in median RTV^4 versus control; TGI in text),[2]; [6],122%
same,TTE50,[2]; [6],24 days
same,median tumor growth delay,"[2]; 22RV1 xenograft, versus control",11 days
same,Gain TTE50 (improvement in median survival),"[2]; 22RV1 xenograft, versus control (9.5 days)",14.5 days
same,cell kill versus controls in excision assay (in words),"[3]; SiHa human cervical tumor xenograft, docetaxel 65 mg/kg i.p.",inactive
same,Log Cell Kill versus controls (Mean ± SEM),"[3]; SiHa tumors excised 18 hours after treatment, docetaxel 65 mg/kg, i.p.",0.451
same,Weight Loss Nadir (%),"[4]; CD-1 nude mice, PR-104 652 mg/kg, docetaxel 73 mg/kg, i.p., q2w×2, trihydrate",−8.7±1.5%
same,LTC (long term control),[4]; 120 day experiment,0
same,Median RTV^4,[4]; [7],12 days
same,TTE50,[4]; [7],14 days
same,TGD (relative gain in median RTV^4 versus control),"[4]; PR-104 652 mg/kg, docetaxel 73 mg/kg, q2w×2, trihydrate",167% and 166.7%
same,improvement in median tumor growth delay,[4]; versus control,7.5 days
same,Gain TTE50 (improvement in median survival),[4]; versus control (6 days),8 days
